Measured values reported in patent US9901592B2 (priority 2008, dated 2018).
In brackets after ≈: the same amount, converted by molar mass. Where two headings read alike, the source gives them in different places.

How the values were obtained:
S. pneumoniae [1] = test: microbe, parasite or virus in culture; format: cell-based; details: for MIC: Streptococcus pneumoniae
M. hominis = format: cell-based; details: M. hominis (13 isolates)
S. pyogenes = format: cell-based
streptococci = test: organism not typed; format: cell-based
pneumococci = test: microbe, parasite or virus in culture; format: cell-based, S. pneumoniae; details: Streptococcus pneumoniae
S. pneumoniae [2] = format: cell-based
M. catarrhalis = test: microbe, parasite or virus in culture; format: cell-based; details: Moraxella catarrhalis

## CCC[C@@H]1C[C@@H](C(=O)N[C@@H]([C@H]2O[C@H](SC)[C@H](O)[C@@H](O)[C@H]2O)[C@H](C)Cl)N(C)C1 [CLN, clindamycin]
S. pneumoniae [1]; S. pneumoniae
  strains with resistant clones / strains tested: 2/5
S. pneumoniae [1]; read-out: Initial MIC, strain 24 Macrolide-R [erm(B)], parent
  MIC: > 64 µg/mL
S. pneumoniae [1]; read-out: Initial MIC, strain 1076 Macrolide-R [erm(B)&mef(A)], parent
  MIC: 64 µg/mL (≈ 151 µM)
S. pneumoniae [1]; read-out: Initial MIC, strain 1077 Macrolide-S, parent
  MIC: 0.016 µg/mL (≈ 0.0376 µM)
S. pneumoniae [1]; read-out: Initial MIC, strain 1635 Macrolide-R [erm(A)], parent
  MIC: 0.06 µg/mL (≈ 0.141 µM)
S. pneumoniae [1]; read-out: Initial MIC, strain 2686 Macrolide-R [L4 mutation], parent
  MIC: 0.03 µg/mL (≈ 0.0706 µM)
S. pneumoniae [1]; read-out: Initial MIC, strain 3009 Macrolide-R [23SrRNA mutation], parent
  MIC: 1 µg/mL (≈ 2.35 µM)
S. pneumoniae [1]; read-out: Initial MIC, strain 3665 Macrolide-R [mef(A)], parent
  MIC: 0.016 µg/mL (≈ 0.0376 µM)
S. pneumoniae [1]; read-out: Initial MIC, strain 7127 Macrolide-S [S20N in L4, A105V in L22], parent
  MIC: 0.03 µg/mL (≈ 0.0706 µM)
S. pneumoniae [1]; read-out: MIC of parents of resistant clones, S. pneumoniae (CEM-101: 7 strains)
  MIC: 0.03 to 0.06 µg/mL
S. pneumoniae [1]; read-out: Parental MICs, S. pneumoniae, 8 strains with varying resistotypes
  MIC: 0.016 to 1 µg/mL (≈ 0.0376 to 2.35 µM)
S. pneumoniae [1]; read-out: Selected Resistance MIC, strain 1077 Macrolide-S, after serial passages in the drug
  MIC: 4 µg/mL (≈ 9.41 µM)
S. pneumoniae [1]; read-out: Selected Resistance MIC, strain 1635 Macrolide-R [erm(A)], after serial passages in the drug
  MIC: > 64 µg/mL
S. pneumoniae [1]; read-out: Selected Resistance MIC, strain 2686 Macrolide-R [L4 mutation], after serial passages in the drug
  MIC: 0.125 µg/mL (≈ 0.294 µM)
S. pneumoniae [1]; read-out: Selected Resistance MIC, strain 3009 Macrolide-R [23SrRNA mutation], after serial passages in the drug
  MIC: 2 µg/mL (≈ 4.71 µM)
S. pneumoniae [1]; read-out: Selected Resistance MIC, strain 3665 Macrolide-R [mef(A)], after serial passages in the drug
  MIC: 0.03 µg/mL (≈ 0.0706 µM)
S. pneumoniae [1]; strain 24 Macrolide-R [erm(B)], clone selected with CEM-101
  Retest MIC after 10 Antibiotic-free Subcultures: >64 µg/mL
S. pneumoniae [1]; strain 24 Macrolide-R [erm(B)], clone selected with TEL
  Retest MIC after 10 Antibiotic-free Subcultures: >64 µg/mL
S. pneumoniae [1]; strain 1076 Macrolide-R [erm(B)&mef(A)], clone selected with CEM-101
  Retest MIC after 10 Antibiotic-free Subcultures: >64 µg/mL
S. pneumoniae [1]; strain 1076 Macrolide-R [erm(B)&mef(A)], clone selected with TEL
  Retest MIC after 10 Antibiotic-free Subcultures: >64 µg/mL
S. pneumoniae [1]; strain 1077 Macrolide-S, clone selected with AZI
  Retest MIC after 10 Antibiotic-free Subcultures: 4 µg/mL
S. pneumoniae [1]; strain 1077 Macrolide-S, clone selected with CEM-101
  Retest MIC after 10 Antibiotic-free Subcultures: 0.03 µg/mL
S. pneumoniae [1]; strain 1077 Macrolide-S, clone selected with CLN
  Retest MIC after 10 Antibiotic-free Subcultures: 8 µg/mL
S. pneumoniae [1]; strain 1077 Macrolide-S, clone selected with TEL
  Retest MIC after 10 Antibiotic-free Subcultures: 8 µg/mL
S. pneumoniae [1]; strain 1635 Macrolide-R [erm(A)], clone selected with AZI
  Retest MIC after 10 Antibiotic-free Subcultures: 0.03 µg/mL
S. pneumoniae [1]; strain 1635 Macrolide-R [erm(A)], clone selected with CEM-101
  Retest MIC after 10 Antibiotic-free Subcultures: 0.03 µg/mL
S. pneumoniae [1]; strain 1635 Macrolide-R [erm(A)], clone selected with CLN
  Retest MIC after 10 Antibiotic-free Subcultures: >64 µg/mL
S. pneumoniae [1]; strain 1635 Macrolide-R [erm(A)], clone selected with CLR
  Retest MIC after 10 Antibiotic-free Subcultures: 0.25 µg/mL
S. pneumoniae [1]; strain 2686 Macrolide-R [L4 mutation], clone selected with CEM-101
  Retest MIC after 10 Antibiotic-free Subcultures: 0.03 µg/mL
S. pneumoniae [1]; strain 2686 Macrolide-R [L4 mutation], clone selected with CLR
  Retest MIC after 10 Antibiotic-free Subcultures: 0.03 µg/mL
S. pneumoniae [1]; strain 2686 Macrolide-R [L4 mutation], clone selected with TEL
  Retest MIC after 10 Antibiotic-free Subcultures: 0.03 µg/mL
S. pneumoniae [1]; strain 3009 Macrolide-R [23SrRNA mutation], clone selected with CEM-101
  Retest MIC after 10 Antibiotic-free Subcultures: 1 µg/mL
S. pneumoniae [1]; strain 3009 Macrolide-R [23SrRNA mutation], clone selected with CLR
  Retest MIC after 10 Antibiotic-free Subcultures: 1 µg/mL
S. pneumoniae [1]; strain 3665 Macrolide-R [mef(A)], clone selected with CEM-101
  Retest MIC after 10 Antibiotic-free Subcultures: 0.03 µg/mL
S. pneumoniae [1]; strain 3665 Macrolide-R [mef(A)], clone selected with CLR
  Retest MIC after 10 Antibiotic-free Subcultures: 0.03 µg/mL
S. pneumoniae [1]; strain 3665 Macrolide-R [mef(A)], clone selected with TEL
  Retest MIC after 10 Antibiotic-free Subcultures: 0.03 µg/mL
S. pneumoniae [1]; strain 7127 Macrolide-S [S20N in L4, A105V in L22], clone selected with AZI
  Retest MIC after 10 Antibiotic-free Subcultures: 0.06 µg/mL
S. pneumoniae [1]; strain 7127 Macrolide-S [S20N in L4, A105V in L22], clone selected with CEM-101
  Retest MIC after 10 Antibiotic-free Subcultures: 0.03 µg/mL
S. pneumoniae [1]; strain 7127 Macrolide-S [S20N in L4, A105V in L22], clone selected with CLN
  Retest MIC after 10 Antibiotic-free Subcultures: 0.25 µg/mL
S. pneumoniae [1]; strain 7127 Macrolide-S [S20N in L4, A105V in L22], clone selected with CLR
  Retest MIC after 10 Antibiotic-free Subcultures: 1 µg/mL
S. pneumoniae [1]; strain 7127 Macrolide-S [S20N in L4, A105V in L22], clone selected with TEL
  Retest MIC after 10 Antibiotic-free Subcultures: 0.03 µg/mL
M. hominis
  MIC Range: ≦0.008-0.031 μg/mL
M. hominis; Metamycoplasma hominis, read-out: MIC50
  MIC50: ≤ 0.008 µg/mL
M. hominis; Metamycoplasma hominis, read-out: MIC90
  MIC90: 0.016 µg/mL (≈ 0.0376 µM)
S. pyogenes; strain 237 Macrolide-R [L4 mutation], 2 × MIC
  single step mutation frequency: <1.0 × 10^−10
S. pyogenes; strain 237 Macrolide-R [L4 mutation], 4 × MIC
  single step mutation frequency: <1.0 × 10^−10
S. pyogenes; strain 237 Macrolide-R [L4 mutation], 8 × MIC
  single step mutation frequency: <1.0 × 10^−10
S. pyogenes; strain 2011 Macrolide-R [mef(A)], 2 × MIC
  single step mutation frequency: <1.0 × 10^−10
S. pyogenes; strain 2011 Macrolide-R [mef(A)], 4 × MIC
  single step mutation frequency: <1.0 × 10^−10
S. pyogenes; strain 2011 Macrolide-R [mef(A)], 8 × MIC
  single step mutation frequency: <1.0 × 10^−10
S. pyogenes; strain 2094 Macrolide-R [erm(A)], 2 × MIC
  single step mutation frequency: 2.1 × 10^−7
S. pyogenes; strain 2094 Macrolide-R [erm(A)], 4 × MIC
  single step mutation frequency: 1.3 × 10^−7
S. pyogenes; strain 2094 Macrolide-R [erm(A)], 8 × MIC
  single step mutation frequency: 1.1 × 10^−7
S. pyogenes; strain 2132 Macrolide-S, 2 × MIC
  single step mutation frequency: <7.7 × 10^−11
S. pyogenes; strain 2132 Macrolide-S, 4 × MIC
  single step mutation frequency: <7.7 × 10^−11
S. pyogenes; strain 2132 Macrolide-S, 8 × MIC
  single step mutation frequency: <7.7 × 10^−11
streptococci
  MIC50: ≤ 0.12 µg/mL
pneumococci; pneumococci, L4 mutations (27)
  MIC50: 0.06 µg/mL (≈ 0.141 µM)
  MIC90: 0.125 µg/mL (≈ 0.294 µM)
pneumococci; read-out: MIC range, pneumococci, L4 mutations (27)
  MIC: 0.03 to 0.125 µg/mL (≈ 0.0706 to 0.294 µM)
S. pneumoniae [2]; strain 1077 Macrolide-S, 2 × MIC
  single step mutation frequency: <3.8 × 10^−10
S. pneumoniae [2]; strain 1077 Macrolide-S, 4 × MIC
  single step mutation frequency: <3.8 × 10^−10
S. pneumoniae [2]; strain 1077 Macrolide-S, 8 × MIC
  single step mutation frequency: <3.8 × 10^−10
S. pneumoniae [2]; strain 1635 Macrolide-R [erm(A)], 2 × MIC
  single step mutation frequency: 7.3 × 10^−7
S. pneumoniae [2]; strain 1635 Macrolide-R [erm(A)], 4 × MIC
  single step mutation frequency: 5.5 × 10^−7
S. pneumoniae [2]; strain 1635 Macrolide-R [erm(A)], 8 × MIC
  single step mutation frequency: 5.6 × 10^−7
S. pneumoniae [2]; strain 2686 Macrolide-R [L4 mutation], 2 × MIC
  single step mutation frequency: <1.2 × 10^−9
S. pneumoniae [2]; strain 2686 Macrolide-R [L4 mutation], 4 × MIC
  single step mutation frequency: <1.2 × 10^−9
S. pneumoniae [2]; strain 2686 Macrolide-R [L4 mutation], 8 × MIC
  single step mutation frequency: <1.2 × 10^−9
S. pneumoniae [2]; strain 3009 Macrolide-R [23S rRNA mutation], 2 × MIC
  single step mutation frequency: 1.7 × 10^−4
S. pneumoniae [2]; strain 3009 Macrolide-R [23S rRNA mutation], 4 × MIC
  single step mutation frequency: 7.3 × 10^−9
S. pneumoniae [2]; strain 3009 Macrolide-R [23S rRNA mutation], 8 × MIC
  single step mutation frequency: <1.2 × 10^−10
S. pneumoniae [2]; strain 3665 Macrolide-R [mef(A)], 2 × MIC
  single step mutation frequency: <2.4 × 10^−10
S. pneumoniae [2]; strain 3665 Macrolide-R [mef(A)], 4 × MIC
  single step mutation frequency: <2.4 × 10^−10
S. pneumoniae [2]; strain 3665 Macrolide-R [mef(A)], 8 × MIC
  single step mutation frequency: <2.4 × 10^−10
S. pneumoniae [2]; strain 7127 Macrolide-S [S20N in L4, A105V in L22], 2 × MIC
  single step mutation frequency: <2.9 × 10^−8
S. pneumoniae [2]; strain 7127 Macrolide-S [S20N in L4, A105V in L22], 4 × MIC
  single step mutation frequency: <2.9 × 10^−8
S. pneumoniae [2]; strain 7127 Macrolide-S [S20N in L4, A105V in L22], 8 × MIC
  single step mutation frequency: <2.9 × 10^−8
M. catarrhalis
  MIC90: 2 µg/mL (≈ 4.71 µM)
